Assay results from EP4725948A1, “PYRROLO[2,3-D]PYRIMIDIN-4-AMINE DERIVATIVE AND USE THEREOF IN MEDICINE” (Haisco Pharmaceutical Group Co., Ltd., priority 2023, dated 2024).

System: not listed separately
Experiment: Pharmacokinetic test in rats (inhalation administration)
Conditions: SD rats, single inhalation dose 0.03 mg/kg
Protocol: Experimental objective: In this experiment, the test compound was administered as a single dose via inhalation to SD rats, and the concentrations of the test compound in rat plasma and lungs were determined to evaluate the pharmacokinetic characteristics and bioavailability of the test compound in the rats.
Experimental animals: Male SD rats, 180-200 g, purchased from Chengdu Dossy Experimental Animals Co., Ltd.
Experimental method: On the day of the experiment, SD rats were randomly assigned into 6 groups according to body weight (for each compound), with 2 rats in each group. The rats were fasted with water available for 12 to 16 hours one day before the administration, and were fed 4 hours after the administration.
Plasma sampling: before and after the administration, blood was taken from the orbits of the rats under isoflurane anaesthesia, and placed in an EDTAK2 centrifuge tube. Centrifugation was performed at 6000 rpm at 4°C for 10 min, and the plasma was collected.
Lung tissue sampling: Animals from each group were euthanised by CO2 inhalation at 0.25, 0.5, 1, 4, 7 and 24 hours after the administration. Then, the animal was dissected to collect lung tissue, which was rinsed with physiological saline, dried with filter paper, weighed in the balance, kept on wet ice and homogenised within 2 hours using a 6-fold volume (i.e., 6 mL per 1 g of tissue) of homogenisation buffer (50% methanol-water).
Before analysis and detection, all samples were stored at -60°C. The samples were analysed quantitatively by LC-MS/MS.

Lung AUC0-t/plasma AUC0-t	Structure (SMILES)
83.6	CC(C)(Cc1csc([C@]2(C)C(=O)Nc3nc(-n4c(=O)n(Cc5ccccc5F)c5cc(F)ccc54)nc(N)c32)n1)C(=O)O [Compound 38-1]
659	CC(C)(Cc1cccc([C@@]2(C)C(=O)Nc3nc(-c4nn(CCC(F)(F)C(F)(F)F)c5cc(Cl)cnc45)nc(N)c32)c1)C(=O)O [Compound 6-1]
245	CC(C)(Cc1csc([C@]2(C)C(=O)Nc3nc(-c4nc(Cc5ccccc5F)n5ncccc45)nc(N)c32)n1)C(=O)O [Compound 19-1]
43.4	CC(C)(Cc1csc([C@]2(C)C(=O)Nc3nc(-c4nc(CCC(F)(F)C(F)(F)F)n5cc(F)ccc45)nc(N)c32)n1)C(=O)O [Compound 45-1]

Same assay, conditions: SD rats, single inhalation dose 0.03 mg/kg, lung tissue

Lung Cmax	Lung AUC0-t	Structure (SMILES)
1743 ng/mL	–	CC(C)(Cc1csc([C@]2(C)C(=O)Nc3nc(-n4c(=O)n(Cc5ccccc5F)c5cc(F)ccc54)nc(N)c32)n1)C(=O)O [Compound 38-1]
2825 ng/mL	5173 ng·h/mL	CC(C)(Cc1cccc([C@@]2(C)C(=O)Nc3nc(-c4nn(CCC(F)(F)C(F)(F)F)c5cc(Cl)cnc45)nc(N)c32)c1)C(=O)O [Compound 6-1]
2842 ng/mL	12248 ng·h/mL	CC(C)(Cc1csc([C@]2(C)C(=O)Nc3nc(-c4nc(Cc5ccccc5F)n5ncccc45)nc(N)c32)n1)C(=O)O [Compound 19-1]
1729 ng/mL	3281 ng·h/mL	CC(C)(Cc1csc(C2(C)C(=O)Nc3nc(-n4nc(CCC(F)(F)C(F)(F)F)c5ncc(F)cc54)nc(N)c32)n1)C(=O)O (single isomer, unassigned) [Compound 37-1]
2846 ng/mL	4500 ng·h/mL	CC(C)(Cc1csc([C@]2(C)C(=O)Nc3nc(-c4nc(CCC(F)(F)C(F)(F)F)n5cc(F)ccc45)nc(N)c32)n1)C(=O)O [Compound 45-1]

Target: T1, soluble guanylate cyclase (sGC) (Homo sapiens, UniProt Q02108+Q02153)
T1 sequence (Q02108 1-690): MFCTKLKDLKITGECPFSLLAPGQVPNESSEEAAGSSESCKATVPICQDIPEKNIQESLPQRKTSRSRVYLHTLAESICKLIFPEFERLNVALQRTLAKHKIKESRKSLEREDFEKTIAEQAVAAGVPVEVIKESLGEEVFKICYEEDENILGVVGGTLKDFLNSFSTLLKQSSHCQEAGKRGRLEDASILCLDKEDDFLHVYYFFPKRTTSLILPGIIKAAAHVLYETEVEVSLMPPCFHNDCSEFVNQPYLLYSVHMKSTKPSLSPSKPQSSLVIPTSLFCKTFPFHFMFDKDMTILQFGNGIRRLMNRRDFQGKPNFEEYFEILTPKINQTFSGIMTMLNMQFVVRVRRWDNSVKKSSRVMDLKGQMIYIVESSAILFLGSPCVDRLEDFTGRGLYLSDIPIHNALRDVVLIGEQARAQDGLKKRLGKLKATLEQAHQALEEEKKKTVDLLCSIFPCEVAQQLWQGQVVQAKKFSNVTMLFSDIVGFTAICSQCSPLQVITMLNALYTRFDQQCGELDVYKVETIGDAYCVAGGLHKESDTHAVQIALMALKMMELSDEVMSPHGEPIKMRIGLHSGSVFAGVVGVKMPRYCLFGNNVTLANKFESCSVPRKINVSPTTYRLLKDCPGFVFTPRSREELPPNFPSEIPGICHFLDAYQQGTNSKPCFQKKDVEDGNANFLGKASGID
T1 sequence (Q02153 1-619): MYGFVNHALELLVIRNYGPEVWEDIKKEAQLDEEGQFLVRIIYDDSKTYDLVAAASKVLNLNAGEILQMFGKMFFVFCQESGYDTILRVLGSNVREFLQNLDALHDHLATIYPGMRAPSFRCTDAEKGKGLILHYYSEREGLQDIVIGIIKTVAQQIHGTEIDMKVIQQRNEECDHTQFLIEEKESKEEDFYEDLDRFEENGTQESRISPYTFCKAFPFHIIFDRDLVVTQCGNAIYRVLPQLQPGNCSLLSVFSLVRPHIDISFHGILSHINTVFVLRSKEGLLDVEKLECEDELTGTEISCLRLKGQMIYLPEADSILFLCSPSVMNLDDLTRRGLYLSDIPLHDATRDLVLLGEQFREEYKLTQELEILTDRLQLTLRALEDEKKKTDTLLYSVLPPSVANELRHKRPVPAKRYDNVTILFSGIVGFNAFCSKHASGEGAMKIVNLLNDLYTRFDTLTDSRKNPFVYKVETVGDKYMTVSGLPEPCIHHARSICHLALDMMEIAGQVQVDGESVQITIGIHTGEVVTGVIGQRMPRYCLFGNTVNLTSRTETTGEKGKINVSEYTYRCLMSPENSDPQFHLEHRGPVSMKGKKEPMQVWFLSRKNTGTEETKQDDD
Experiment: In vitro detection experiment for soluble guanylate cyclase (sGC) activity (TR-FRET);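 also: enzyme reaction started with GTP and run for 60 min at 37°C, followed by a 60 min detection step at room temperature, with EC50 obtained by nonlinear curve fitting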
Conditions: not given

EC50	Structure (SMILES)
< 20 nM	CC(C)(Cc1csc(C2(C)C(=O)Nc3nc(-c4nc(Cc5ccccc5F)n5ncccc45)nc(N)c32)n1)C(=O)O (racemic) [Compound 19]
< 20 nM	CC(C)(Cc1coc(C2(C)C(=O)Nc3nc(-c4nc(CCC(F)(F)C(F)(F)F)n5cc(F)ccc45)nc(N)c32)n1)C(=O)O (stereo not shown) [Compound 46]
< 20 nM	CC(C)(Cc1csc(C2(C)C(=O)Nc3nc(-n4nc(Cc5cccc(F)c5F)c5ncc(F)cc54)nc(N)c32)n1)C(=O)O (racemic) [Compound 36]
< 20 nM	CC(C)(Cc1csc(C2(C)C(=O)Nc3nc(-n4c(=O)n(CCC(F)(F)C(F)(F)F)c5ncccc54)nc(N)c32)n1)C(=O)O (stereo not shown) [Trifluoroacetate of compound 10]
< 20 nM	CC(C)(Cc1cccc(C2(C)C(=O)Nc3nc(-n4nc(CCC(F)(F)C(F)(F)F)c5ncccc54)nc(N)c32)c1)C(=O)O (stereo not shown) [Trifluoroacetate of compound 5]
< 20 nM	CC(C)(Cc1coc(C2(C)C(=O)Nc3nc(-c4nn(CCC(F)(F)C(F)(F)F)c5cc(Cl)cnc45)nc(N)c32)n1)C(=O)O (stereo not shown) [Compound 21]
< 20 nM	CC(C)(Cc1csc(C2(C)C(=O)Nc3nc(-n4c(=O)n(Cc5cccc(F)c5F)c5ncc(F)cc54)nc(N)c32)n1)C(=O)O (stereo not shown) [Trifluoroacetate of compound 28]
< 20 nM	CC(C)(Cc1coc(C2(C)C(=O)Nc3nc(-n4c(=O)n(CCC(F)(F)C(F)(F)F)c5cc(F)ccc54)nc(N)c32)n1)C(=O)O (stereo not shown) [Compound 11]
< 20 nM	CC(C)(Cc1csc(C2(C)C(=O)Nc3nc(-n4nc(CCC(F)(F)C(F)(F)F)c5ncc(F)cc54)nc(N)c32)n1)C(=O)O (racemic) [Compound 37]
< 20 nM	CC(C)(Cc1csc(C2(C)C(=O)Nc3nc(-n4nc(CCC(F)(F)C(F)(F)F)c5cc(F)ccc54)nc(N)c32)n1)C(=O)O (racemic) [Compound 17]
< 20 nM	CC(C)(Cc1csc(C2(C)C(=O)Nc3nc(-c4nc(CCC(F)(F)C(F)(F)F)n5ncccc45)nc(N)c32)n1)C(=O)O (racemic) [Compound 3]
< 20 nM	CC(C)(Cc1csc(C2(C)C(=O)Nc3nc(-n4nc(Cc5ccccc5F)c5ncc(F)cc54)nc(N)c32)n1)C(=O)O (racemic) [Compound 35]
< 20 nM	CC(C)(Cc1coc(C2(C)C(=O)Nc3nc(-n4nc(Cc5ccccc5F)c5cc(Cl)ccc54)nc(N)c32)n1)C(=O)O (stereo not shown) [Trifluoroacetate of compound 34]
< 20 nM	CC(C)(Cc1coc(C2(C)C(=O)Nc3nc(-n4nc(Cc5ccccc5F)c5c(F)cccc54)nc(N)c32)n1)C(=O)O (stereo not shown) [Compound 40]
< 20 nM	CC(C)(Cc1csc(C2(C)C(=O)Nc3nc(-n4c(=O)n(CC5CCCCC5)c5ncc(F)cc54)nc(N)c32)n1)C(=O)O (stereo not shown) [Compound 13]
< 20 nM	CC(C)(Cc1csc(C2(C)C(=O)Nc3nc(-c4nn(CCC(F)(F)C(F)(F)F)c5cc(Cl)cnc45)nc(N)c32)n1)C(=O)O (stereo not shown) [Compound 20]
< 20 nM	CC(C)(Cc1csc(C2(C)C(=O)Nc3nc(-n4c(=O)n(CCC(F)(F)C(F)(F)F)c5c(F)cccc54)nc(N)c32)n1)C(=O)O (racemic) [Trifluoroacetate of compound 14]
< 20 nM	CC(C)(Cc1csc(C2(C)C(=O)Nc3nc(-n4nc(Cc5ccccc5F)c5c(F)cccc54)nc(N)c32)n1)C(=O)O (racemic) [Compound 41]
< 20 nM	CC(C)(Cc1cccc(C2(C)C(=O)Nc3nc(-n4c(=O)n(CCC(F)(F)C(F)(F)F)c5ncccc54)nc(N)c32)c1)C(=O)O (racemic) [Compound 9]
< 20 nM	CC(C)(Cc1csc(C2(C)C(=O)Nc3nc(-n4c(=O)n(CCC(F)(F)C(F)(F)F)c5ncc(F)cc54)nc(N)c32)n1)C(=O)O (racemic) [Compound 12]
< 20 nM	CC(C)(Cc1csc(C2(C)C(=O)Nc3nc(-n4c(=O)n(Cc5ccccc5F)c5cc(F)ccc54)nc(N)c32)n1)C(=O)O (racemic) [Trifluoroacetate of compound 38]
< 20 nM	CC(C)(Cc1cccc(C2(C)C(=O)Nc3nc(-c4nc(CCC(F)(F)C(F)(F)F)n5ncccc45)nc(N)c32)c1)C(=O)O (stereo not shown) [Compound 18]
< 20 nM	CC(C)(Cc1csc(C2(C)C(=O)Nc3nc(-n4nc(CC5CCCCC5)c5ncc(F)cc54)nc(N)c32)n1)C(=O)O (stereo not shown) [Compound 44]
< 20 nM	CC(C)(Cc1coc(C2(C)C(=O)Nc3nc(-n4c(=O)n(CCC(F)(F)C(F)(F)F)c5c(F)cccc54)nc(N)c32)n1)C(=O)O (stereo not shown) [Compound 16]
< 20 nM	CC(C)(Cc1csc(C2(C)C(=O)Nc3nc(-n4nc(CCC(F)(F)C(F)(F)F)c5ncccc54)nc(N)c32)n1)C(=O)O (stereo not shown) [Compound 29]
< 20 nM	CC(C)(Cc1csc(C2(C)C(=O)Nc3nc(-c4nn(Cc5ccccc5F)c5cccnc45)nc(N)c32)n1)C(=O)O (stereo not shown) [Trifluoroacetate of compound 23]
< 20 nM	CC(C)(Cc1cccc(C2(C)C(=O)Nc3nc(-n4c(=O)n(CCC(F)(F)C(F)(F)F)c5cc(Cl)ccc54)nc(N)c32)c1)C(=O)O (single isomer, unassigned) [Compound 1-2]
< 20 nM	CC(C)(Cc1coc(C2(C)C(=O)Nc3nc(-n4nc(Cc5cccc(F)c5F)c5c(F)cccc54)nc(N)c32)n1)C(=O)O (stereo not shown) [Compound 42]
< 20 nM	CC(C)(Cc1csc(C2(C)C(=O)Nc3nc(-c4nc(CCC(F)(F)C(F)(F)F)n5cc(F)ccc45)nc(N)c32)n1)C(=O)O (racemic) [Compound 45]

Structure (SMILES)	EC50
CC(C)(Cc1csc(C2(C)C(=O)Nc3nc(-c4nn(Cc5cccc(F)c5F)c5cccnc45)nc(N)c32)n1)C(=O)O (stereo not shown) [Compound 24]	< 20 nM
CC(C)(Cc1csc(C2(C)C(=O)Nc3nc(-n4nc(CCC(F)(F)C(F)(F)F)c5cc(Cl)ccc54)nc(N)c32)n1)C(=O)O (racemic) [Trifluoroacetate of compound 4]	< 20 nM

Same assay, conditions: enzymatic agonism and/or activation of sGC; 1.5 nM sGC, 5 µM GTP, 100 µM DETA NONOate

EC50	Structure (SMILES)
< 20 nM	CC(C)(Cc1csc(C2(C)C(=O)Nc3nc(-n4nc(Cc5ccccc5F)c5cc(Cl)ccc54)nc(N)c32)n1)C(=O)O (stereo not shown) [Trifluoroacetate of compound 32]
< 20 nM	CC(C)(Cc1coc(C2(C)C(=O)Nc3nc(-n4c(=O)n(CCC(F)(F)C(F)(F)F)c5cc(Cl)ccc54)nc(N)c32)n1)C(=O)O (stereo not shown) [Compound 8]
< 20 nM	CC(C)(Cc1csc(C2(C)C(=O)Nc3nc(-n4c(=O)n(Cc5ccccc5F)c5c(F)cccc54)nc(N)c32)n1)C(=O)O (stereo not shown) [Trifluoroacetate of compound 15]
< 20 nM	CC(C)(Cc1csc(C2(C)C(=O)Nc3nc(-n4c(=O)n(CCC(F)(F)C(F)(F)F)c5cc(F)ccc54)nc(N)c32)n1)C(=O)O (stereo not shown) [Compound 31]
< 20 nM	CC(C)(Cc1coc(C2(C)C(=O)Nc3nc(-n4nc(CCC(F)(F)C(F)(F)F)c5cc(F)ccc54)nc(N)c32)n1)C(=O)O (stereo not shown) [Trifluoroacetate of compound 33]
